Entries after “also recorded” stand apart in the source; their conditions may differ.

This is an account of results in patent US20240325489A1, “CONNEXIN 43 FOR USE IN THE TREATMENT OF RETINOBLASTOMA PROTEIN POSITIVE TUMOURS” (FUNDACIÓN PROFESOR NOVOA SANTOS, priority 2021, published 2024).

Data set [1] relates to T47D cells. In words: IC50 calculation, Palbociclib dose-response, crystal violet. As to conditions: Homo sapiens, 168 h; T47D (lower Cx43 than MCF7-Cx43), 7 days treatment. The class given is cell-based. On the procedure: Rb positive cell lines MCF7 (breast cancer), T47D (breast cancer) and A375 (melanoma) were cultured in Dulbecco's modified Eagle's medium (DMEM) (Lonza) supplemented with 10% fetal bovine serum (FBS) (Gibco, Thermo Fisher Scientific) and 100 U/mL penicillin and 100 μg/ml streptomycin (Gibco, Thermo Fisher Scientific). HT29 (colon adenocarcinoma) was cultured in McCoy'S 5A medium (Sigma-Aldrich) supplemented with 10% FBS and 100 U/mL penicillin and 100 μg/ml streptomycin. Cells were maintained at 37° C. in 5% CO2 humidified incubator (SANYO CO2). The medium was changed every 2 days. IC50s were calculated using cell cultures from MCF7 (EV and Cx43) and T47D cells treated with different concentrations of the CDK4/6 inhibitor Palbociclib for 7 days. Cells were stained with crystal violet and cell number was assessed measuring the absorbance at 570 nm.

Data set [2] deals with MCF7 cells overexpressing Cx43 (MCF7 Cx43). Described as above. It counts as cell-based. The note with it: Homo sapiens, 168 h; MCF7 containing Cx43, 7 days treatment, absorbance 570 nm. The protocol:
(§1) Rb positive cell lines MCF7 (breast cancer), T47D (breast cancer) and A375 (melanoma) were cultured in Dulbecco's modified Eagle's medium (DMEM) (Lonza) supplemented with 10% fetal bovine serum (FBS) (Gibco, Thermo Fisher Scientific) and 100 U/mL penicillin and 100 μg/ml streptomycin (Gibco, Thermo Fisher Scientific). HT29 (colon adenocarcinoma) was cultured in McCoy'S 5A medium (Sigma-Aldrich) supplemented with 10% FBS and 100 U/mL penicillin and 100 μg/ml streptomycin. Cells were maintained at 37° C. in 5% CO2 humidified incubator (SANYO CO2). The medium was changed every 2 days.
(§2) Retroviral infection was used to overexpress Cx43 in MCF7 cells. Retroviral particles were generated by transfecting pLPCX-Cx43 and pLPCX-EV plasmids, kindly donated by Dr. Trond Aasen, and retroviral helper plasmids (vsvg and gag-pol) with Polyethylenimine (PEI) in HEK293T packaging cells for 48 h. The supernatant was then filtered with 0.45 μm filters and applied to MCF7 cells in the presence of 4 μg/ml polybrene (hexadimethrine bromide; Sigma-Aldrich) following 3 rounds of infection. […]
(§3) IC50s were calculated using cell cultures from MCF7 (EV and Cx43) and T47D cells treated with different concentrations of the CDK4/6 inhibitor Palbociclib for 7 days. Cells were stained with crystal violet and cell number was assessed measuring the absorbance at 570 nm.

The subject of data set [3] is MCF7 cells expressing the vector control (EV). Described as above. It counts as cell-based. The note with it: Homo sapiens, 168 h; MCF7 EV (no Cx43), 7 days treatment, absorbance 570 nm. On the procedure:
as §1, §2, §3

Data set [4] deals with MCF7 cells. In words: Colony formation assay. As to conditions: for reduction in cell proliferation: FIG. 3c, MCF7, 500 nM Palbociclib 7 days, compared with untreated control. It counts as cell-based, human. On the procedure:
Retroviral infection was used to overexpress Cx43 in MCF7 cells. Retroviral particles were generated by transfecting pLPCX-Cx43 and pLPCX-EV plasmids, kindly donated by Dr. Trond Aasen, and retroviral helper plasmids (vsvg and gag-pol) with Polyethylenimine (PEI) in HEK293T packaging cells for 48 h. The supernatant was then filtered with 0.45 μm filters and applied to MCF7 cells in the presence of 4 μg/ml polybrene (hexadimethrine bromide; Sigma-Aldrich) following 3 rounds of infection. Cells were subsequently selected with the appropriate antibiotic resistance using 0.5 μg/ml puromycin (Sigma).
(§4) Cells were treated with 250 nM of Palbociclib (PD0332991) (APExBIO), 500 nM Abemaciclib (LY2835219) (Selleckchem) or 500 nM Ribociclib (LEE011) (Selleckchem) for 7 days. All treatments were done using DMEM supplemented with 10% FBS and 100 U/mL penicillin and 100 μg/ml streptomycin. Media was replaced every 2 days.
(§5) Colony formation assays were performed plating 5×10^3 to 5×10^4 cells per well onto 6-12 well plates and grown for 7-15 days. Medium was replaced every 48 h. The cells were washed with warm Saline Solution and fixed with cold 4% PFA for 15 min. Cells were washed with PBS and stained with 0.05% of crystal violet (Sigma-Aldrich) for 15 min. After staining, the cells were washed with distilled water and dried at room temperature. The colonies were quantified by diluting crystal violet in 30% acetic acid and 100 μL of the solution was collected to measure the absorbance at 570 nm using a NanoQuant microplate reader Infinite M200 (TECAN).
HEK 293T cells were seeded onto 162 cm^2 culture flasks (Corning, Sigma-Aldrich) until confluence (80%-90%). Cells were washed three times with PBS and cultured for 48 h in DMEM 0% FBS. Supernatants were collected and centrifuged at 1800 rpm for 5 min. Pellet was discarded and supernatants were filtered through a 0.22 μm filter and then the filtered supernatants were centrifuged at 100,000 g for 90 min at 4° C. (Optimal-90K ultracentrifuge) using 70 Ti rotor (Beckman Coulter). Supernatants were discarded and pellet-containing sEVs were washed with PBS and centrifuged at 100,000 g for 90 min at 4° C. The pellet with sEVs was resuspended in culture medium. Target cells (MCF7 or T47D cells) were treated with sEVs in the presence/absence of CDK 4/6 inhibitors for 48 h. 3 rounds of treatment were performed. For NTA Nanosight NS300 analysis and sEV protein and RNA content determination, a second ultracentrifugation with PBS was performed, and sEV pellet was resuspended in PBS. […]

The next data set deals with A375 melanoma cells. In words: Colony formation assay. It counts as cell-based, human. As to conditions: A375 Cx43 vs EV, 7 days, 250 nM Palbociclib, 500 nM Abemaciclib and Ribociclib. On the procedure:
(§6) Cell lines (A375 and HT29) were transfected by electroporation to overexpress Cx43. The Amaxa® Cell Line Nucleofector® Kit V (Lonza) was used to transfect cells in a Cell Line Nucleofector™ Device (Lonza). A million cells were harvested and resuspended in 100 μL of Nucleofector® solution. 3 μg of the corresponding plasmid was added, and the mixture was transferred into an electroporation cuvette using the U-28 program. Cell lines were transfected with pIRESpuro2 plasmid construct (Clontech) containing the human Cx43 sequence, kindly donated by Arantxa Tabernero (Institute of Neuroscience of Castilla y León, University of Salamanca, Spain). The transfected cells were seeded in culture medium and 24 hours (h) post-transfection the medium was replaced with complete medium containing puromycin dihydrochloride (Tocris, Bioscience) at different concentrations depending of the cell line (0.5 μg/mL to 2 μg/mL). […]
(§7) Colony formation assays were performed plating 5×10^3 to 5×10^4 cells per well onto 6-12 well plates and grown for 7-15 days. […] The colonies were quantified by diluting crystal violet in 30% acetic acid and 100 μL of the solution was collected to measure the absorbance at 570 nm using a NanoQuant microplate reader Infinite M200 (TECAN).

Data set [5] deals with HT29 colon adenocarcinoma cells. The experiment in a line: Proliferation of colon cells (colony formation). It counts as cell-based. The note with it: HT29 Cx43 vs EV, 7 days, 250 nM Palbociclib, 500 nM Abemaciclib and Ribociclib. On the procedure: as §6, §7
In data set [6] the test system is T47D cells. In words: Colony formation assay. It counts as cell-based. The note with it: 7 days treatment. The protocol: as §4, §5
HEK 293T cells were seeded onto 162 cm^2 culture flasks (Corning, Sigma-Aldrich) until confluence (80%-90%). Cells were washed three times with PBS and cultured for 48 h in DMEM 0% FBS. Supernatants were collected and centrifuged at 1800 rpm for 5 min. Pellet was discarded and supernatants were filtered through a 0.22 μm filter and then the filtered supernatants were centrifuged at 100,000 g for 90 min at 4° C. […]

Data set [7] concerns MCF7 cells. The experiment in a line: Hemichannel activity (ATP release) and gap-junction communication (parachute assay). It counts as cell-based, human. As to conditions: MCF7 upon Cx43 restoration vs EV.
The test system of data set [8] is MCF7 cells. In words: Senescence and apoptosis markers (western-blot, qPCR, SA-β-galactosidase). It counts as cell-based, human. The protocol: Cells were grown onto coverslips and fixed with 4% paraformaldehyde (PFA) for 10 min at room temperature (RT). Cells were then washed twice with PBS and permeabilized by incubation with 0.2% Triton X-100 (Sigma) in PBS for 10 min at RT. After a PBS wash, cells were blocked 30 min at RT using 1% BSA in PBS supplemented with 0.1% Tween-20 (PBST). Primary antibodies were diluted in 1% BSA-PBST and incubated overnight (anti-Cx43 (#C6219), Sigma-Aldrich 1:1000; anti-Tubulin (T9026). Cells were then washed with PBS and incubated with secondary antibodies for 1 h at RT. HRP-conjugated secondary antibodies used were anti-mouse (NA-931, Sigma-Aldrich) and anti-rabbit ([…], Sigma-Aldrich). Cells were washed with PBS and fixed with 4% paraformaldehyde for 15 mins at room temperature. […] (Senescence Cells Histochemical Staining Kit Ref […]; Sigma). Cells were imaged using a light microscope at 20× magnification and single representative images of each well were taken. Total RNA was isolated from cells using TRI Reagent® RT (Vitro Bio) according to manufacturer's protocol. 200 μL of chloroform were added to the tubes and samples were incubated for 10 min at 4° C. and then centrifugated at 14,000 g for 15 min at 4° C. After centrifugation, the aqueous phase (upper) are obtained and transferred to a new tube with 500 μL of isopropanol and samples were vortexed 15 sec. The tubes centrifugated at 14,000 g for 15 min at 4° C. Supernatant was discarded, and the RNA pellets were washed with 1 mL of 70% ethanol and centrifugated for 5 min at 7,000 g at 4° C. The supernatants were discarded, and RNA pellets were air dry. RNA was treated with DNase I, RNase free (Thermo Fisher Scientific) following manufacturer's protocol. RNA samples were quantified in a Nanodrop® ND-1000 (Thermo Fisher Scientific). 1 μg of RNA was used to synthesize complementary DNA (cDNA) with the SuperscriptTM IV VILOTM Master Mix (Invitrogen, Thermo Fisher Scientific) following manufacturer's protocol. cDNA samples are quantified in a Nanodrop® ND-1000 (Thermo Fisher Scientific) and resuspended in DNase/RNase/Protease-free water (Sigma-Aldrich). 5 μL of cDNA (1 μg) were mixed with 0.5 μL of primer mix (10 μM each primer), 10 μL of Applied BiosystemsTM PowerUPTM SYBRTM Green Master Mix (Applied Biosystems, Thermo Fisher Scientific) and complete with dH2O until 20 μL per well on LightCycler® 480 System (Roche). The program consisted on a first denaturing cycle of 10 min at 95° C. followed by 30-55 amplification cycles for 10 seconds (sec) at 95° C., 30 sec at 60° C. for annealing and 12 sec at 72° C. for extension. The primers used are listed below: […]

By IC50 is commonly meant the concentration that inhibits the measured activity by half. With `CC(=O)c1c(C)c2cnc(Nc3ccc(N4CCNCC4)cn3)nc2n(C2CCCC2)c1=O` [Palbociclib], the IC50 was 121 nM in the data set with T47D cells [1], 66.8 nM in [2] and 282 nM in [3]. For the same compound, the “reduction in cell proliferation” value in the data set on MCF7 cells [4] was “around 40%”.

`CN(C)C(=O)c1cc2cnc(Nc3ccc(N4CCNCC4)cn3)nc2n1C1CCCC1` [Ribociclib]: the “effect of Cx43 overexpression on inhibitor efficacy (reduction in proliferation)” value (with A375 melanoma cells; in data set [5]) was “increases the efficacy” in each case. The “effect of Cx43 overexpression on the CDK4/6 inhibitor's effect on cell proliferation” value with MCF7 cells [4] (MCF7 Cx43 vs EV, 7 days, colony formation) is “enhances the effect”. For the same compound, in the data set with T47D cells [6], the colony formation capacity result is on record as “effectively respond”.

For “Cx43: connexin 43 overexpressed in tumour cells by retroviral vector or plasmid”, in the data set with MCF7 cells [4], the “reduction in cell proliferation” value amounted to 50%. Moreover, the “cell proliferation / colony formation capacity” value in the data set with MCF7 cells [4] (MCF7, 7 days) was “induces proliferation arrest; also recorded: significantly reduced cell proliferation and colony formation capacity”. Further, the “hemichannels activity and gap-junction intercellular communication” value in the data set on MCF7 cells [7] was “increase in hemichannels activity and gap-junction intercellular communication”. For the same compound, the β-galactosidase activity entry in the data set with MCF7 cells [8] (MCF7, SA-β-galactosidase staining) is listed as “increases β-galactosidase activity”. For the same compound, in the data set with MCF7 cells [8] (MCF7, western-blot), the “apoptotic markers Bax and Bcl2 protein” value was “increases the pro-apoptotic protein Bax and reduces Bcl2”. The “levels of senescent markers p21 and p53” value with MCF7 cells [8] (MCF7, western-blot, vs vector control (EV)) was “increases the levels of the senescent markers p21 and p53”. The “SASP factors IL6, IL8, MMP9 (qPCR)” value with MCF7 cells [8] (MCF7 overexpressing Cx43 vs EV) is “increases the secretion of different cytokines such as IL6, IL8 and MMP9”.
